Values quoted from earlier work, collected in patent US20070225210A1, “Therapeutic vaccine compositions for the treatment of type 1 diabetes” (priority 2003, published 2007).

Experiments:
[1] = tested on: insulin; settings: aqueous formulations, administered subcutaneously, NOD mice
[2] = tested on: NOD mice
[3] = tested on: individuals with, or at risk of, type 1 diabetes; settings: repeat administration of low doses

Substance | immune response to insulin [1] | prevention of the onset of diabetes ([2]; aqueous formulations, administered subcutaneously) | protection from the onset of diabetes ([2]; immunization) | protection against diabetes ([2]; immunization, administered intranasally) | symptoms of diabetes and insulin-dependency of the patient [3]
SHLVEALYLVCGERG (Insulin B chain analog) [insulin B chain 9-23, 9-23 fragment of the native insulin B chain] | can induce an immune response to insulin | can prevent the onset of diabetes | protect from the onset of diabetes | partial protection against diabetes | –
insulin B chain: native human insulin B chain peptide with cysteinyl residues at positions 7 and 19 | – | – | protect from the onset of diabetes | – | can prevent or reduce the symptoms of diabetes and the insulin-dependency of the patient
